Results taken from ChEMBL document CHEMBL4706737, “PROTAC-Mediated Degradation of Bruton's Tyrosine Kinase as a Therapeutic Strategy for Cancer” (ACS Med Chem Lett, 2021).

target: Protein cereblon/Tyrosine-protein kinase BTK (Homo sapiens, UniProt Q06187+Q96SW2); experiment: Protac activity at E3 ubiquitin ligase/BTK in human Ramos cells assessed as induction of BTK degradation measured after 16 hrs by ELISA; assay type: cell-based
Sequence (Q06187 whole entry): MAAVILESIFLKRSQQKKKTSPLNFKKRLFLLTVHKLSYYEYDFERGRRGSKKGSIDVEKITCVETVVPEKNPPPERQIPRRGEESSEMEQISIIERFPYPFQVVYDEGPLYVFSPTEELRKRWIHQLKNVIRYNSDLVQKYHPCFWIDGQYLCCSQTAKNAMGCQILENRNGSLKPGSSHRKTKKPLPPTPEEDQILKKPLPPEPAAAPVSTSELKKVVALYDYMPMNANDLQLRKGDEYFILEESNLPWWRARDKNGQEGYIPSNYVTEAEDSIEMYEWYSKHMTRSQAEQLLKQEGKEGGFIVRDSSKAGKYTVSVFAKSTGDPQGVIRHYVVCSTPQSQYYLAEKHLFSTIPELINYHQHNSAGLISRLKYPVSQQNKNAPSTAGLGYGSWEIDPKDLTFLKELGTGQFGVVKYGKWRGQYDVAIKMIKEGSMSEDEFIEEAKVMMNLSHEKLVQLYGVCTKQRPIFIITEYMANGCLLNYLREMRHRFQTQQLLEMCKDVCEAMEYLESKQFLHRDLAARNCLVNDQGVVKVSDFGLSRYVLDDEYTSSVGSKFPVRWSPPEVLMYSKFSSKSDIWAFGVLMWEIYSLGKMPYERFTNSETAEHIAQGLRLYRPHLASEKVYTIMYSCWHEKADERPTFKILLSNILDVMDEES
Sequence (Q96SW2 whole entry): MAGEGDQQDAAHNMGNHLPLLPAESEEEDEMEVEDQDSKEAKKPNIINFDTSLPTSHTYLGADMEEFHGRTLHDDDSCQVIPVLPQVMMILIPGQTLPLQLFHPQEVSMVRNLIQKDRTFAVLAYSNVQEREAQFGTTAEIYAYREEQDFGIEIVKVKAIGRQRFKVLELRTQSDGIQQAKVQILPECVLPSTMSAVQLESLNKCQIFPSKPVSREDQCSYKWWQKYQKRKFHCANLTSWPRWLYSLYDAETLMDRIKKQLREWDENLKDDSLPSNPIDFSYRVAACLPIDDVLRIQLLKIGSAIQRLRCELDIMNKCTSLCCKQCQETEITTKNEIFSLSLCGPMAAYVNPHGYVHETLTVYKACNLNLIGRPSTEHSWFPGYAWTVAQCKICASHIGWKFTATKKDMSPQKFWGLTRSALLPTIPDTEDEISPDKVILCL

| DC50 [nM] | SMILES |
| --- | --- |
| 68 | NC(=O)c1c(-c2ccc(Oc3ccccc3)cc2)nn2c1NCC[C@H]2C1CCN(C(=O)c2cn(CCOCCOCCOCCOCCNc3cccc4c3C(=O)N(C3CCC(=O)NC3=O)C4=O)nn2)CC1 (some centres not stated) |
| 78 | NC(=O)c1c(-c2ccc(Oc3ccccc3)cc2)nn2c1NCC[C@H]2C1CCN(C(=O)c2cn(CCOCCOCCOCCOCCOCCNc3ccc4c(c3)C(=O)N(C3CCC(=O)NC3=O)C4=O)nn2)CC1 (some centres not stated) |
| 107 | NC(=O)c1c(-c2ccc(Oc3ccccc3)cc2)nn2c1NCC[C@H]2C1CCN(C(=O)c2cn(CCOCCOCCOCCOCCOCCOCCNc3cccc4c3C(=O)N(C3CCC(=O)NC3=O)C4=O)nn2)CC1 (some centres not stated) |
| 78 | NC(=O)c1c(-c2ccc(Oc3ccccc3)cc2)nn2c1NCC[C@H]2C1CCN(C(=O)c2cn(CCOCCOCCOCCOCCOCCNc3cccc4c3C(=O)N(C3CCC(=O)NC3=O)C4=O)nn2)CC1 (some centres not stated) |
| 34 | NC(=O)c1c(-c2ccc(Oc3ccccc3)cc2)nn2c1NCC[C@H]2C1CCN(C(=O)c2cn(CCOCCOCC(=O)Nc3ccc4c(c3)C(=O)N(C3CCC(=O)NC3=O)C4=O)nn2)CC1 (some centres not stated) |
| 28 | NC(=O)c1c(-c2ccc(Oc3ccccc3)cc2)nn2c1NCC[C@H]2C1CCN(C(=O)CCCc2ccc(NC(=O)CNc3ccc4c(c3)C(=O)N(C3CCC(=O)NC3=O)C4=O)cc2)CC1 (some centres not stated) |

The remaining lines, values behind:

| SMILES | DC50 [nM] |
| --- | --- |
| NC(=O)c1c(-c2ccc(Oc3ccccc3)cc2)nn2c1NCC[C@H]2C1CCN(C(=O)CCN2CCN(C(=O)CNc3ccc4c(c3)C(=O)N(C3CCC(=O)NC3=O)C4=O)CC2)CC1 (some centres not stated) | 2.9 |
| NC(=O)c1c(-c2ccc(Oc3ccccc3)cc2)nn2c1NCC[C@H]2C1CCN(C(=O)CCC2CCC(N3CCN(c4ccc5c(c4)C(=O)N(C4CCC(=O)NC4=O)C5=O)CC3)CC2)CC1 (some centres not stated) | 17 |
| CN(CCC(=O)N1CCC([C@@H]2CCNc3c(C(N)=O)c(-c4ccc(Oc5ccccc5)cc4)nn32)CC1)CC1CCN(c2ccc3c(c2)C(=O)N(C2CCC(=O)NC2=O)C3=O)CC1 (some centres not stated) | 35 |
| CN(CC1CCN(C(=O)c2ccc(N3CCC(=O)NC3=O)cc2)CC1)C1CC(C(=O)N2CCC([C@@H]3CCNc4c(C(N)=O)c(-c5ccc(Oc6ccccc6)cc5)nn43)CC2)C1 (some centres not stated) | 7.2 |
| NC(=O)c1c(-c2ccc(Oc3ccccc3)cc2)nn2c1NCC[C@H]2C1CCN(C(=O)CCc2ccc(N3CCN(c4ccc5c(c4)C(=O)N(C4CCC(=O)NC4=O)C5=O)CC3)cc2)CC1 (some centres not stated) | 74 |
| NC(=O)c1c(-c2ccc(Oc3ccccc3)cc2)nn2c1NCC[C@H]2C1CCN(C(=O)CCCN2CCN(C(=O)CNc3ccc4c(c3)C(=O)N(C3CCC(=O)NC3=O)C4=O)CC2)CC1 (some centres not stated) | 35 |
